Measurements as given in patent US20260055381A1, “PROTEIN, POLYNUCLEOTIDE, EXPRESSION VECTOR, TRANSFORMANT, PLASMALOGEN-CONTAINING COMPOSITION, AND METHOD FOR PRODUCING PLASMALOGEN” (INSTITUTE OF RHEOLOGICAL FUNCTION OF FOOD CO., LTD., priority 2022, published 2026).

Experiment: Production of plasmalogen in suis plsA-transformed E. coli (phospholipid by HPLC-ELSD, aldehyde after acid hydrolysis)
Details: in aerobically grown E. coli
Procedure: After thawing the bacterial cells, the total weight of the cells was measured. After 1 mL of water was added to and mixed with the bacterial cells, 3.75 mL of chloroform/methanol (1:2, v/v) was added thereto, and the resulting mixture was mixed. The mixture was subjected to sonication for 10 minutes, and then left to stand at room temperature for 30 minutes. After adding 1.25 mL chloroform to the mixture, 1.25 mL water was added thereto. After performing centrifugation, the chloroform layer was transferred to a glass tube, and the remaining aqueous layer was subjected to re-extraction with 2 mL of chloroform. The resulting combined chloroform layer was dried under nitrogen gas, and resuspended in hexane/isopropanol (3:2, v/v) to a bacterial cell concentration of 120 mg/mL, followed by filtration through a 0.45-μm filter. After injecting 10 μL of the bacterial cell suspension into high-performance liquid chromatography (HPLC), detection was performed by an evaporative light-scattering detector (ELSD).
Lipid standard solutions with different concentrations were also detected by HPLC-ELSD. A calibration curve was prepared based on the peak area at each concentration, and the amount of phospholipids was calculated from the area ratio of the peak corresponding to phospholipids obtained from the E. coli with a retention time of 10 to 20 minutes. […]

Substance: suis PlsA protein: PlsA protein of 1639 amino acids of SEQ ID NO:2, from B. longum suis subspecies
- plasmalogen synthesis activity: shown to have a plasmalogen synthesis activity
